The source of these data is US6632807B1, “(2R,4S)-(−)-[N-(4-diethoxyphosphorylmethyl)phenyl]-1,2,4,5- tetrahydro-4-methyl-7,8-methylenedioxy-5-oxo-3-benzothiepin-2-carboxamide” (Takeda Chemical Industries, Ltd., priority 1994, dated 2003).

In data set [1] the test system is stromal cells prepared from the femoral bone marrow of a normal rat. Nature of the data set: Osteogenesis-promoting action: alkaline phosphatase activity in rat bone marrow stromal cells. The data set is classed as cell-based. The conditions noted are these: 10 to 14 days cultivation, mean ±SE, control 113.7 ± 8.1. Here is the method:
Using stromal cells prepared from the femoral bone marrow of a normal rat, alkaline phosphatase activity was determined as an index of osteogenesis. Specifically, stromal cells, prepared from the femoral bone marrow of a 7-week-old male Sprague-Dawley rat by the method of Maniatopoulos et al. [Cell Tissue Research, Vol. 254, p. 317 (1988)], were cultured in an α-MEM (minimum essential medium) solution containing both dexamethasone (10^−7 M) and β-glycerophosphoric acid (10^−2 M) to obtain mineralized bone-like tissue. One week later, the test compound (10^−6 M or 10^−5 M) was added to the confluent cells, followed by 10 to 14 more days of cultivation in the above culture broth. After washing with phosphate buffer, the cells were homogenized with 0.2% Nonidet P-40 and centrifuged at 3,000 rpm for 10 minutes. The resulting supernatant was assayed for alkaline phosphatase activity by the method of Lowry et al. [Journal of Biological Chemistry, Vol. 207, p. 19 (1954)]. The values obtained are given in mean ±SE in Table 1. The data were statistically analyzed by Student's t-test.

A word on the melting point: it is the temperature of the solid-liquid transition.

Take `COP(=O)(Cc1ccc(NC(=O)[C@H]2Cc3cc4c(cc3C(=O)[C@H](C)S2)OCO4)cc1)OC`: the melting point lay within 198 to 199 °C. `CCOP(=O)(Cc1ccc(NC(=O)[C@@H]2Cc3cc4c(cc3C(=O)[C@@H](C)S2)OCO4)cc1)OCC`: the melting point is 183 to 184 °C. Regarding `CCOP(=O)(Cc1ccc(NC(=O)[C@H]2Cc3cc4c(cc3C(=O)[C@H](C)S2)OCO4)cc1)OCC` [Example 1, (2R,4S)-(−)-N-[4-(Diethoxyphosphorylmethyl)phenyl]-1,2,4,5-tetrahydro-4-methyl-7,8-methylenedioxy-5-oxo-3-benzothiepin-2-carboxamide], the “Alkaline Phosphatase Activity” value in data set [1] (test compound 10^−5 M) was 1635.5 ± 169.7 nmol p-nitrophenol/min/well; in data set [1] (test compound 10^−6 M), 682.5 ± 123.2 nmol p-nitrophenol/min/well.
